Data on eight molecules can be found in ChEMBL document CHEMBL1201862, “PubChem BioAssay data set” (2004).

Test systems include U-251; A498; UO-31; SF-539; NCI-H522; Hs-578T; Malme-3M; A549; OVCAR-3; KM12; K562; SNB-19; DU-145; SR; SK-MEL-28; SW-620; SF-295; RXF 393; SNB-75.
Holding throughout (test): inhibition of tumour cell growth, NCI panel, 48 h

“And” between values parts separate entries of the source, which are not always exact repeats. Equal entries are not always repeated.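 Each compound was tested at five concentrations against cells in 96-well plates for 48 hours. Here, GI50 denotes the concentration required for 50% inhibition of growth.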 The source made the active and inactive calls. Rule as the data show it: active = GI50 up to about 1.1 µM and inactive = higher.

In the case of `O=c1c(/C=C/c2c(O)ccc3ccccc23)nnc2sc(-c3cccc(Br)c3)nn12`, the GI50 in the test on U-251 was 25.2 µM (inactive); in the test on A498, 26.7 µM (inactive); in the test on UO-31, 13.4 µM (inactive); in the test on SF-539, 63.8 µM (inactive); in the test on NCI-H522, 15.5 µM (inactive); with Hs-578T, 35.9 µM (inactive). In addition, the GI50 in the test with Malme-3M was 23 µM (inactive); with A549, 32.1 µM (inactive); in the test on OVCAR-3, 3.89 µM (inactive); in the test with KM12 it was 20.7 µM (inactive); in the test on K562 it was 19.9 µM (inactive); with SNB-19 it was 39 µM (inactive). Further, the GI50 in the test on DU-145 is 16.1 µM (inactive); in the test on SR, 4.72 µM (inactive); in the test on SK-MEL-28, 20.8 µM (inactive); in the test with SW-620, 25.6 µM (inactive); in the test on SF-295 it was 32.7 µM (inactive).

As to `Cc1nn(-c2ccccc2)c(C)c1/C=N/NC(=O)c1sc(=S)n(-c2ccccc2)c1N`, the GI50 with U-251 is 4.7 µM (inactive); in the test with A498, 3.63 µM (inactive); in the test with UO-31 it was 3.74 µM (inactive); in the test on SF-539, 2.39 µM (inactive); with RXF 393 it was 1.46 µM (inactive); with Hs-578T, 1.85 µM (inactive). The GI50 with Malme-3M was 3.58 µM (inactive); with A549, 3.9 µM (inactive); in the test on OVCAR-3, 16.1 µM (inactive); in the test with KM12, 6.05 µM (inactive); in the test with K562, 0.681 µM (active); in the test on SNB-19, 30.8 µM (inactive). Moreover, the GI50 was 9.66 µM (inactive) with DU-145; 0.281 µM (active) in the test with SNB-75; 3.94 µM (inactive) in the test on SR; 3.25 µM (inactive) in the test on SK-MEL-28; 45.5 µM (inactive) with SW-620; 2.42 µM (inactive) in the test with SF-295.

As to `Cn1c(=O)cc(NNc2ccc(Cl)c(Cl)c2)[nH]c1=O`, the GI50 in the test on U-251 is 12.4 µM (inactive); in the test on A498 it was 36.8 µM (inactive); in the test with UO-31 it was 12.1 µM (inactive); with SF-539, 15.1 µM (inactive); in the test with RXF 393, 22.9 µM (inactive); in the test with Hs-578T, 20.4 µM (inactive). In addition, the GI50 in the test with Malme-3M is > 10 µM (inactive); with A549, 16.2 µM (inactive); in the test with OVCAR-3 it was 15.5 µM (inactive); in the test with KM12 it was 12.3 µM (inactive); in the test with K562, 2.04 µM (inactive); with SNB-19 it was 32.1 µM (inactive). The GI50 was 17.5 µM (inactive) in the test on DU-145; 23 µM (inactive) in the test on SNB-75; > 100 µM (inactive) with SR; 11.5 µM (inactive) in the test with SK-MEL-28; 6.1 µM (inactive) with SW-620; 15.3 µM (inactive) in the test with SF-295.

Take `Cc1cc(NS(=O)(=O)c2ccc(NO)cc2)no1`: the GI50 in the test on A498 is > 100 µM (inactive); with UO-31, > 100 µM (inactive); in the test on SF-539, 35.1 µM (inactive); with RXF 393 it was > 100 µM (inactive); with Hs-578T, > 100 µM (inactive); in the test on Malme-3M it was > 100 µM (inactive). For the same molecule, the GI50 is > 100 µM (inactive) in the test with A549; > 100 µM (inactive) in the test on OVCAR-3; 63.4 µM (inactive) in the test with KM12; 14.7 µM (inactive) in the test on K562; > 100 µM (inactive) with SNB-19; > 100 µM (inactive) in the test on DU-145. Moreover, the GI50 was 43.7 µM (inactive) in the test on SNB-75; 23.4 µM (inactive) in the test on SR; > 100 µM (inactive) in the test with SK-MEL-28; 29.2 µM (inactive) in the test on SW-620; > 10 µM (inactive) with SF-295.

As to `COc1ccc(/N=N/N2CCCC2)cc1`, the GI50 with U-251 is > 100 µM (inactive); in the test on A498, > 100 µM (inactive); in the test on UO-31 it was 31.9 µM (inactive); with SF-539, 29.8 µM (inactive); with RXF 393, 26.1 µM (inactive); in the test on NCI-H522 it was 12.9 µM (inactive). The GI50 is 54.5 µM (inactive) in the test with Hs-578T; 17.6 µM (inactive) in the test on Malme-3M; > 100 µM (inactive) in the test on A549; 19.6 µM (inactive) with OVCAR-3; 0.305 µM (active) in the test on KM12; 31.4 µM (inactive) in the test on K562. Further, the GI50 in the test with SNB-19 was > 100 µM (inactive); with DU-145, > 100 µM (inactive); in the test with SR it was 48.3 µM (inactive); in the test with SK-MEL-28, 44.2 µM (inactive); in the test on SW-620 it was 26.8 µM (inactive); with SF-295, > 100 µM (inactive).

For the molecule `Cc1cn(C2CC(N(O)Cc3ccccc3)C(CO[Si](C)(C)C(C)(C)C)O2)c(=O)[nH]c1=O` (stereo not drawn), the GI50 in the test on U-251 is 15.1 µM (inactive) and 19.6 µM (inactive); in the test with A498, 13.8 µM (inactive) and 26.7 µM (inactive); in the test on SF-539, 15.5 µM (inactive) and 18.1 µM (inactive); in the test on RXF 393 it was 13.6 µM (inactive); with NCI-H522, 18 µM (inactive); with Hs-578T, 18.4 µM (inactive) and 16.5 µM (inactive). Also, the GI50 in the test with Malme-3M was 17.9 µM (inactive); with OVCAR-3, 17.7 µM (inactive); in the test with KM12 it was 23 µM (inactive) and 17.2 µM (inactive); with K562 it was 24.4 µM (inactive) and 27 µM (inactive); in the test on SNB-19, 18.6 µM (inactive) and 34.9 µM (inactive); in the test on DU-145 it was 17.8 µM (inactive) and 25.4 µM (inactive). For the same molecule, the GI50 was 31.6 µM (inactive) with SR; 19.4 µM (inactive) and 25.8 µM (inactive) in the test on SW-620; 17.2 µM (inactive) and 18.8 µM (inactive) in the test with SF-295.

For the molecule `Cn1cc(NC(=O)Nc2cc(C(=O)Nc3cc(C(=O)Nc4ccc5cc(S(=O)(=O)O)cc(S(=O)(=O)O)c5c4)n(C)c3)n(C)c2)cc1C(=O)Nc1cc(C(=O)Nc2ccc3cc(S(=O)(=O)O)cc(S(=O)(=O)O)c3c2)n(C)c1`, the GI50 in the test on U-251, in the test on UO-31, with SF-539, in the test on RXF 393, in the test on NCI-H522 and in the test with Hs-578T was > 100 µM (inactive) in each case. In addition, the GI50 with Malme-3M was > 100 µM (inactive); in the test on A549, 84.9 µM (inactive); in the test with OVCAR-3, 84.3 µM (inactive); with KM12, > 100 µM (inactive); in the test with K562, > 100 µM (inactive); in the test with SNB-19 it was > 100 µM (inactive). The GI50 is > 100 µM (inactive) in the test with DU-145; 82 µM (inactive) in the test on SNB-75; > 100 µM (inactive) in the test with SR; > 100 µM (inactive) in the test on SK-MEL-28; > 100 µM (inactive) with SW-620; > 100 µM (inactive) in the test on SF-295.

`OCCCN(CCc1ccc(Cl)c(Cl)c1)CCN1CCCC1`: the GI50 is 48.1 µM (inactive) in the test with U-251; 17.3 µM (inactive) with A498; 50.2 µM (inactive) in the test on UO-31; 64.4 µM (inactive) in the test with RXF 393; 30.3 µM (inactive) in the test on NCI-H522; 38.8 µM (inactive) with Hs-578T. In addition, the GI50 was 23.9 µM (inactive) with Malme-3M; 58.2 µM (inactive) with A549; > 100 µM (inactive) with OVCAR-3; 45.7 µM (inactive) in the test with KM12; 19.5 µM (inactive) in the test with K562; 68.4 µM (inactive) in the test with SNB-19. For the same molecule, the GI50 with DU-145 is > 100 µM (inactive); with SNB-75, 33 µM (inactive); in the test on SR, 31.8 µM (inactive); with SW-620 it was 81.5 µM (inactive); in the test with SF-295, 34 µM (inactive).
